Experiments:
[1] = Acute toxicity (LD50), i.v. via tail vein, one-week observation; conditions: both sexes, mouse, in vivo, iv, Kunming mice, YC-6 injection of Example 3 (20 mg/ml)
Description: Kunming mice were caged by weight and randomly divided into 5 groups. Each group had 10 mice, with half males and half females. The YC-6 injection 10 prepared in Example 3 (20 mg/ml) was i.v. administrated via tail vein at different doses. All mice were sacrificed after one-week observation. The toxic reaction and number of death of the animals were recorded every day. LD50 and 95% confidence were calculated.

[2] = Solubility in water; type: physicochemical; conditions: background statement, no test described

C[C@@]12CCC[C@H]1[C@@H]1C[C@@H](O)[C@@]3(O)C[C@@H](O)CC[C@]3(C)[C@H]1CC2 [YC-6, 5α-androstane-3β,5,6β-triol]
LD50 at 1 week [1]: > 400 mg/kg | Solubility in water [2]: low solubility in water
